Values after ≈ are worked out from the molar mass of the structure shown. Like-named read-outs stand apart in the source and are kept apart here. Marks after values point to notes of the source that are not given here. Some results are limits rather than exact numbers.

Data on five molecules can be found in paper PMC12592502, “Unraveling the mechanisms behind the enhanced efficacy of β-lactam-based sideromycins” (Communications Biology, 2025).

The subject of one series is E. coli BW25113. In words: MIC, parental strain of Keio mutants. The series is classed as cell-based, Escherichia coli. As to the method:
(§1) All bacterial strains (see description and sources Table S1) were stored at −80 °C, and grown on tryptone soya agar (TSA) at 35 °C. The iron-deprived (ID)-MHBCA (cation-adjusted Muller-Hinton Broth, Becton Dickinson, Mississauga, ON, Canada) medium was prepared as reported by refs. [21],[50]. Briefly, MHBCA was treated with 10% Chelex® 50-100 mesh (Sigma) and stirred for 6 h at room temperature. The resin was removed by filtration. Divalent Ca^2+ (CaCl2), Mg^2+ (MgCl2), and Zn^2+(ZnSO4), were then added in the iron-depleted medium at 22, 12, and 1 μg/ml respectively. Finally, the pH was adjusted to 7.3, and the medium was sterilized with a 0.2-μm filter. Regular MHBCA (i.e., not treated with Chelex®) was used to compare the inhibitory activity of conjugates in iron-sufficient conditions.
(§2) Minimal inhibitory concentrations (MICs) were performed using a broth microdilution technique according to the Clinical and Laboratory Standards Institute (CLSI) guidelines. MICs were determined in MHBCA and in ID-MHBCA. To check the impact of β-lactamases, MICs in the presence of a β-lactamase inhibitor were also determined. The inhibitor was homogenized at 2X the final concentration and added to the bacterial inoculum just before distributing cells into the wells containing the drug dilutions. The final concentration of each inhibitor was 4 μg/mL for clavulanic acid (tested against K. pneumoniae) and 200 μg/mL for 3-aminophenylboronic acid (tested against P. aeruginosa and A. baumannii).

The test system of a further series is E. coli ΔentE. The experiment in a line: MIC, Keio mutant. It counts as cell-based, Escherichia coli. As to the method:
as §1, §2

The next series has as its system E. coli ΔfecA. The experiment in a line: MIC, Keio mutant. The series is classed as cell-based, Escherichia coli. On the procedure:
as §1, §2

For another series, the system named is E. coli ΔfepA. The experiment in a line: MIC, Keio mutant. It counts as cell-based, Escherichia coli. As to the method: as §1, §2
In the next series the test system is E. coli ΔtonB. In words: MIC, Keio mutant. The series is classed as cell-based, Escherichia coli. As to the method:
as §1, §2

Another series addresses OXA-98 (Acinetobacter baumannii, UniProt D0C7W4). The experiment in a line: biochemical. Further details: species or system A. baumannii ATCC 19606. As to the method: Enzyme concentrations were 20 nM for AmpC and SHV-1, and 50 nM for OXA-98. Quartz cuvette (FireflySci Inc., Northport, NY) with 1 cm length path and 2 mm inside width was used with an Ultrospec 2100 Pro (Biochrom, Harvard Bioscience Inc., USA) to acquire the kinetic measures. […] The following extinction coefficients (Δε) and wavelengths (λ) were used:
The steady-state parameters (Km and Kcat) were determined by plotting the initial velocity against substrate concentrations (Michaelis–Menten curve). The Kcat was measured using the Vmax (μM/sec) divided by the total enzyme concentration and the catalytic efficiency was further calculated (Kcat/Km). SHV-1 parameters were determined with three Michaelis–Menten curves of at least seven substrate concentrations, while OXA-98 and AmpC were duplicates of curves of at least seven substrate concentrations. […] Initial velocities were measured at room temperature (25 °C). The Vmax and Km were calculated using least squares fit regression in GraphPad version 10.2.2. Ki was measured using a derivative of IC50 with an adaptation of the Cheng–Prusoff equation[55]. […] The corrected Ki was calculated using this formula: Kicorrected=Ki(observed)/1+S/KmNCF

The nature of series [1]: Antibiotic stability in medium without bacteria. The source says:
This method used ultra-performance liquid chromatography-mass spectrometry (UPLC-MS) to measure the amount of test antibiotics remaining in bacterial culture supernatants over time as a means to measure antibiotic uptake by bacterial cells. The method assumes that all antibiotic molecules in the medium (i.e., those that we measured by UPLC-MS) are not bound to the PBP targets in the periplasm, whereas it is assumed that the bactericidal effect (ΔCFU/mL) is correlated to antibiotic uptake and binding to PBPs. The test strain E. coli MC4100 was cultivated overnight in 10 mL of MHBCA or ID-MHBCA at 37 °C with shaking (200 rpm). The next day, the overnight culture was diluted in fresh preheated medium to obtain an OD600 of ~0.7 in MHBCA or ID-MHBCA. The culture was further diluted 1:2 in MHBCA or ID-MHBCA (growth controls), or in MHBCA or ID-MHBCA containing the freshly prepared test antibiotic (2 × the final concentration) to obtain an initial OD600 of ~0.35 (corresponding to 8.5 log10 CFU/mL) and 200 μM of antibiotic (final concentration). Antibiotics were also added to preheated MHBCA or ID-MHBCA without bacteria to control for the stability of the molecules in the medium over time. The moment bacteria were put in contact with the test antibiotic corresponded to the first time point (0 h). For each time point thereafter, 200 μL of sample from both assay and stability test tubes were retrieved and centrifuged at 4 °C for 5 min at 8000 × g. All supernatants were filtered (0.2 μm) and flash frozen in liquid nitrogen for transport. After melting, 2 μL of the samples were injected in the UPLC-MS before the analysis. In parallel, 20 μL of assay and growth control tubes were serially diluted in 96-well plates. Ten μL of each dilution was spotted on TSA plates and incubated for 24 h at 37 °C for CFU counting.
For analysis, the determined concentration in the supernatant was adjusted for the degradation of the molecules measured in the stability control tests for each time point. The final net antibiotic concentration in the medium was calculated at each time point by adding the concentration caused by degradation to the concentration of the test antibiotic measured in the assay tubes containing bacteria. […] A second control was added for the β-lactam LOR and CEF to verify the impact of metabolic waste on the stability of the molecules. The supernatant from the 4-h growth control without antibiotic was collected by filtration 0.2 µm. LOR and CEF were then added to the filtrated supernatant at 200 µM, and degradation was measured after 3 h.

[2] abbreviates: Escherichia coli, BW25113, BW25113, ID-MHBCA.
Setting [3] is: Escherichia coli, BW25113, BW25113, MHBCA.

OXA-98, sequence (D0C7W4 entry or part of it): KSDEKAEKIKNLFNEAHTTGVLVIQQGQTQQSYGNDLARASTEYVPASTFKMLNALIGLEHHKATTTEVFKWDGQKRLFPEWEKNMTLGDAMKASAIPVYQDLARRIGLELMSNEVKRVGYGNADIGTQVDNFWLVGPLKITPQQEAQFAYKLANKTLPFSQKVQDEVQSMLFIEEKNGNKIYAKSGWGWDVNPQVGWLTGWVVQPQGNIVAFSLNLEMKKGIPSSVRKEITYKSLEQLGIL

Turning to `CC1(C)SC2C(NC(=O)C(NC(=O)CN(CCCCNC(=O)c3cccc(O)c3O)C(=O)c3cccc(O)c3O)c3ccccc3)C(=O)N2C1C(=O)O` (centres unmarked) [BAMP, bis-catechol (azotochelin)-ampicillin], the MIC was 0.024 µM (≈ 0.018 µg/mL) in the series on E. coli BW25113 (setting [2]); 0.05 µM (≈ 0.0375 µg/mL) with E. coli BW25113 (setting [3]); 0.05 µM (≈ 0.0375 µg/mL) against E. coli ΔentE (Escherichia coli, ID-MHBCA); 0.2 µM (≈ 0.15 µg/mL) against E. coli ΔentE (Escherichia coli, MHBCA); 0.006 µM (≈ 0.0045 µg/mL) against E. coli ΔfecA (Escherichia coli, ID-MHBCA); at most 0.003 µM with E. coli ΔfecA (Escherichia coli, MHBCA). The MIC is 0.024 µM (≈ 0.018 µg/mL) against E. coli ΔfepA (Escherichia coli, ID-MHBCA); 0.1 to 0.4 µM (≈ 0.075 to 0.3 µg/mL) against E. coli ΔfepA (Escherichia coli, MHBCA); 0.2 µM (≈ 0.15 µg/mL) in the series with E. coli ΔfepA (MHBCA); 50 µM (≈ 37.5 µg/mL) in the series on E. coli ΔtonB (Escherichia coli); 50^c μM in the series on E. coli ΔtonB (ΔtonB, MHBCA). On OXA-98, this molecule gave a Ki of 499 ± 4 µM.

Consider `O=C(CN(CCCCNC(=O)c1cccc(O)c1O)C(=O)c1cccc(O)c1O)NC(C(=O)NC1C(=O)N2C(C(=O)O)=C(Cl)CCC12)c1ccccc1` (centres unmarked) [BLOR, bis-catechol (azotochelin)-loracarbef], for which the MIC is 0.006 µM (≈ 0.0045 µg/mL) in the series on E. coli BW25113 (setting [2]); 0.012 µM (≈ 0.009 µg/mL) in the series on E. coli BW25113 (setting [3]); 0.012 µM (≈ 0.009 µg/mL) against E. coli ΔentE (Escherichia coli, ID-MHBCA); 0.05 µM (≈ 0.0375 µg/mL) against E. coli ΔentE (Escherichia coli, MHBCA); at most 0.003 µM with E. coli ΔfecA (Escherichia coli, ID-MHBCA); at most 0.003 µM against E. coli ΔfecA (Escherichia coli, MHBCA). Further, the MIC with E. coli ΔfepA (Escherichia coli, ID-MHBCA) was 0.012 µM (≈ 0.009 µg/mL); in the series with E. coli ΔfepA (Escherichia coli, MHBCA), 0.1 to 0.4 µM (≈ 0.075 to 0.3 µg/mL); in the series on E. coli ΔfepA (MHBCA), 0.1 µM (≈ 0.075 µg/mL); against E. coli ΔtonB (Escherichia coli) it was 50 µM (≈ 37.5 µg/mL). Moreover, the “hydrolysis by OXA-98” value on OXA-98 was “No hydrolysis”. For the same molecule, the “percentage of antibiotic degradation” value in series [1] (2 h, ID-MHBCA) is listed as “NDD”; in series [1] (2 h, MHBCA), 6%; in series [1] (4 h, ID-MHBCA), 3%; in series [1] (4 h, MHBCA) it was 15%; in series [1] (6 h, ID-MHBCA), 6%; in series [1] (6 h, MHBCA), 15%. Moreover, the “percentage of antibiotic degradation” value in series [1] (8 h, ID-MHBCA) worked out at 14%; in series [1] (8 h, MHBCA), 26%; in series [1] (10 h, ID-MHBCA), 9%; in series [1] (10 h, MHBCA) it was 22%; in series [1] (24 h, ID-MHBCA), 14%; in series [1] (24 h, MHBCA) it was 28%.

In the case of `N[C@@H](C(=O)N[C@@H]1C(=O)N2C(C(=O)O)=C(Cl)CS[C@H]12)c1ccccc1` [CEF, cefaclor, reference compound], the MIC in the series on E. coli BW25113 (setting [2]) was determined as 6.3 µM (≈ 2.32 µg/mL); in the series with E. coli BW25113 (setting [3]), 6.3 µM (≈ 2.32 µg/mL); in the series with E. coli ΔentE (Escherichia coli, ID-MHBCA) it was 6.3 µM (≈ 2.32 µg/mL); in the series with E. coli ΔentE (Escherichia coli, MHBCA), 6.3 µM (≈ 2.32 µg/mL); with E. coli ΔfecA (Escherichia coli, ID-MHBCA), 6.3 µM (≈ 2.32 µg/mL); against E. coli ΔfecA (Escherichia coli, MHBCA), 6.3 µM (≈ 2.32 µg/mL). Besides, the minimal inhibitory concentration (MIC) was 25 µM (≈ 9.2 µg/mL) against E. coli ΔfepA (Escherichia coli, ID-MHBCA); 13 µM (≈ 4.78 µg/mL) with E. coli ΔfepA (Escherichia coli, MHBCA); 13 µM (≈ 4.78 µg/mL) against E. coli ΔtonB (Escherichia coli). For the same molecule, the “hydrolysis by OXA-98” value on OXA-98 is “No hydrolysis”. In series [1] (2 h, 200 μM), the “percentage of antibiotic degradation” value was 14%.

Take `N[C@@H](C(=O)N[C@@H]1C(=O)N2C(C(=O)O)=C(Cl)CC[C@H]12)c1ccccc1` [LOR, loracarbef, reference compound]: the MIC in the series on E. coli BW25113 (BW25113, ID-MHBCA) was 6.3 µM (≈ 2.2 µg/mL); with E. coli BW25113 (BW25113, MHBCA), 6.3 µM (≈ 2.2 µg/mL); against E. coli ΔentE (ID-MHBCA) it was 6.3 µM (≈ 2.2 µg/mL); with E. coli ΔentE (MHBCA), 6.3 µM (≈ 2.2 µg/mL); with E. coli ΔfecA (ID-MHBCA), 6.3 µM (≈ 2.2 µg/mL); with E. coli ΔfecA (MHBCA), 3.1 µM (≈ 1.08 µg/mL). The MIC came to 13 µM (≈ 4.55 µg/mL) in the series on E. coli ΔfepA (ID-MHBCA); 6.3 µM (≈ 2.2 µg/mL) in the series on E. coli ΔfepA (MHBCA); 6.3 µM (≈ 2.2 µg/mL) against E. coli ΔtonB (ΔtonB, MHBCA). Further, the “hydrolysis by OXA-98” value at OXA-98 is recorded as “No hydrolysis”. Also, the “percentage of antibiotic degradation” value in series [1] is listed as “NDD”.

`O=C(CCC(=O)N(CCCCNC(=O)c1cccc(O)c1O)CCCNC(=O)c1cccc(O)c1O)NCCCCCN(O)C(=O)CCCC(=O)NC(C(=O)NC1C(=O)N2C(C(=O)O)=C(Cl)CSC12)c1ccccc1` (centres unmarked) [MCEF, mixed ligand bis-catechol-mono-hydroxamate-cefaclor]: the MIC in the series on E. coli BW25113 (BW25113, ID-MHBCA) was over 200 µM; in the series on E. coli BW25113 (setting [2]), over 200 µM; in the series on E. coli BW25113 (setting [3]) it was 13 µM (≈ 14.1 µg/mL); in the series on E. coli ΔentE (Escherichia coli, ID-MHBCA), 1.6 µM (≈ 1.73 µg/mL); against E. coli ΔentE (Escherichia coli, MHBCA) it was 13 µM (≈ 14.1 µg/mL); against E. coli ΔfecA (Escherichia coli, ID-MHBCA), over 200 µM. The MIC in the series on E. coli ΔfecA (Escherichia coli, MHBCA) was 13 µM (≈ 14.1 µg/mL); in the series with E. coli ΔfepA (Escherichia coli, ID-MHBCA), over 200 µM; against E. coli ΔfepA (Escherichia coli, MHBCA), 13 µM (≈ 14.1 µg/mL); with E. coli ΔtonB (Escherichia coli), 25 µM (≈ 27 µg/mL). At OXA-98, the “hydrolysis by OXA-98” value is reported as “No hydrolysis”. The “percentage of antibiotic degradation” value in series [1] (2 h, ID-MHBCA) is reported as 5%; in series [1] (2 h, MHBCA), 12%; in series [1] (4 h, ID-MHBCA) it was 18%; in series [1] (4 h, MHBCA), 25%; in series [1] (6 h, ID-MHBCA), 22%; in series [1] (6 h, MHBCA), 29%. Also, the “percentage of antibiotic degradation” value is 31% in series [1] (8 h, ID-MHBCA); 41% in series [1] (8 h, MHBCA); 29% in series [1] (10 h, ID-MHBCA); 38% in series [1] (10 h, MHBCA); 43% in series [1] (24 h, ID-MHBCA); 54% in series [1] (24 h, MHBCA).
